Laboratory results: PMC11459959, “Discovery of new acetamide derivatives of 5-indole-1,3,4-oxadiazol-2-thiol as inhibitors of HIV-1 Tat-mediated viral transcription” (Antimicrobial Agents and Chemotherapy, 2024)
Read-outs that look alike come from different tables or passages of the source.

Key:
Format in all cases: cell-based
[1] = tested on: general cellular transcription/translation (R-Luc); assay: Dual-reporter assay, R-Luc in bl-DTR cells; details: doxycycline, 24 h
Experimental: Fig 1 (A) (Top panel) Schematic representation of the primary compound screening using a dual-reporter system. […] (B). […] (Top graphs) bl-DTR cells (1 × 10^4) were treated with twofold serial dilutions of each compound before doxycycline (Dox) addition (final concentration, 50 ng/mL). After 24 h of treatment, the activities of firefly luciferase (F-Luc, red line) and Renilla luciferase (R-Luc, blue line) were determined using the Dual-Glo Luciferase assay system. (Bottom graphs) TZM-bl cells were treated with each indicated compound and subsequently infected with the HIV-1NL4-3 strain at a multiplicity of infection (MOI) of 1. At 48 h after infection, the viral infectivity (purple line) and cell viability (green line) were determined using the Bright-Glo luciferase assay kit and the PrestoBlue Cell Viability Reagent, respectively. […] (C). […] The targeted moieties for the SAR study are marked with dotted-circle lines.
(§1) The Tzm-bl-derived dual Tat reporter; TZM-bl/Tat/Rluc (bl-DTR) cells were established from TZM-bl cells using two Dox-inducible lentiviral expression cassettes cloned with Flag-tagged Tat86 and the R-Luc gene, as described in our previous study ([11]). TZM-bl, A3.01, J1.1, and J-Lat 6.3 cells as well as the HIV-1 molecular clone pNL4-3, pNL(AD8), ARV-resistant HIV-1 strains, and HIV-1NL43-IRES-eGFP (pBR43IeG-nef^+, gifted by Dr. Frank Kirchhoff) ([52]) were provided by the National Institute of Health HIV Reagent Program (NIH, Bethesda, MD, USA). HeLa (CCL-2) and 293T (CRL-3216) cell lines were purchased from the American Type Culture Collection (ATCC, Manassas, VA, USA). The bl-DTR, TZM-bl, HeLa, and 293T cells were cultured in Dulbecco’s modified Eagle’s medium supplemented with 1% penicillin–streptomycin and 10% (vol/vol) heat-inactivated fetal bovine serum (all from Gibco-BRL, Gaithersburg, MD, USA), and 1 µg/mL of puromycin and 200 µg/mL of zeocin were additionally supplemented for the bl-DTR cells. PBMCs were purchased from AllCells (Alameda, CA, USA) and cultured as previously described ([12]). The information on ARV-resistant HIV-1 strains was described in previous reports as follows: NNRTI-resistant 12241 and 12243 ([53]); NRTI-resistant 7396, 7406, and 7407 ([54]); INSTI-resistant 11847 and 11849 ([55], [56]); and PI-resistant 11800 and 11803 ([57]). Each molecular HIV-1 clone was transfected to 293T cells, as previously described ([58]), to obtain infectious HIV-1 particles. Virus-containing cell culture supernatants were collected 3 days after transfection, and filtered through a 0.45-µm membrane filter (Millipore Sigma, Burlington, MA, USA) to remove cell debris. The viral titration was performed as described previously ([59]) with some minor modifications. In brief, 1 × 10^4 TZM-bl cells seeded in 96-well plates were infected with 200 µL of virus-containing medium diluted serially twofold. The incubation was for 2 days and the experiment was performed in triplicate; the infection time minimized the virus spread ([59]). The titration of the infectious viral particles was performed with a ß-Gal staining assay using the ßeta-Galactosidase Staining Kit (Mirus Bio, Madison, WI, USA) following the manufacturer’s protocols. In brief, the infected cells were washed with phosphate-buffered saline (PBS) and fixed using a Cell Fixative Working solution. The cells were washed with PBS and stained using the Cell Staining Working Solution containing X-gal. The infected blue-colored cells were counted under a microscope (100× magnification). The infectious virus titer was determined as a mean value of blue-colored cells count × dilution factor and used for determining the multiplicity of infection (MOI) in each infection experiment.

HIV-1NL4-3 = assay: HIV-1 infectivity in TZM-bl cells (F-Luc)
Experimental: The TZM-bl cells (also referred to as JC53BL-13) expressing human CD4, CXCR4, and CCR5 carrying the F-Luc and lacZ genes downstream of the HIV-1 LTR promoter ([60]) were used to determine the inhibitory effect of the compounds on HIV-1 infection, as previously described ([11], [12], [61]). In brief, 1 × 10^4 cells were cultured in 96-well plates for 24 h and subsequently treated with compounds at the indicated concentrations. Without replacement of the culture medium, the cells were subsequently infected with the HIV-1NL4-3 wild-type or ARV-resistant HIV-1 strains at an MOI of 1 to determine the exact inhibitory effect of compounds on a single-round infection. After 48 h, the inhibitory effect of the compounds was determined using a Bright Glo luciferase assay kit (Promega) or β-Galactosidase Enzyme Assay kit (Promega). The infectivity data were presented as a percentage relative to the dimethyl sulfoxide (DMSO) control (vehicle). Cell viability was determined using the resazurin-based PrestoBlue Cell Viability Reagent (Thermo Fisher Scientific, Waltham, MA, USA) following the manufacturer’s instructions.

[2] = tested on: INSTI-resistant HIV-1 strain 11847; assay: microbe, parasite or virus in culture; details: Human immunodeficiency virus 1, TZM-bl
Experimental: (§2) Fig 7 (A–C) TZM-bl cells (1 × 10^4 cells/well) cultured in a 96-well plate were treated with fivefold serial dilutions of the indicated compound or ARV for 1 h before infection with the HIV-1NL4-3 or ARV-resistant HIV-1 strains at an MOI of 1, respectively. At 48 h after infection, the EC50 values were determined using an F-Luc activity. The symbols represent the fold-change values of EC50 against each mutant virus relative to the wild-type (WT) virus. (D) PBMCs (5 × 10^4 cells/well) were infected with the HIV-1NL4-3 and PIs-resistant HIV-1 strain at an MOI of 0.1, respectively. Subsequently, the PBMCs were treated with 10-fold serial dilutions of the indicated compounds or PI. At 3 days after infection, the EC50 values on the viral replication were determined using a p24 […] assay kit. (E) The inhibitory kinetics for the WT and ARV-resistant viruses. TZM-bl cells infected with WT or ARV-resistant viruses were cultured upon fivefold serial dilutions of each compound for 2 days and the infectivity was determined using an F-Luc activity.
as §1

[3] = tested on: INSTI-resistant HIV-1 strain 11849; assay: microbe, parasite or virus in culture; details: Human immunodeficiency virus 1, TZM-bl
Experimental: as §2, §1

[4] = tested on: NNRTI-resistant HIV-1 strain 12241; assay: microbe, parasite or virus in culture; details: Human immunodeficiency virus 1, TZM-bl
Experimental: as §2, §1

[5] = tested on: NNRTI-resistant HIV-1 strain 12243; assay: microbe, parasite or virus in culture; details: Human immunodeficiency virus 1, TZM-bl
Experimental: as §2, §1

[6] = Human immunodeficiency virus 1, TZM-bl, 48 h, Table S1, WT virus, TZM-bl, fivefold serial dilutions, MOI 1, 48 h, read-out: EC50
[7] = Human immunodeficiency virus 1, TZM-bl, Table S1, WT virus, TZM-bl, read-out: EC50

Row | Structure (SMILES) | Relative R-Luc activity at IC50 of F-Luc [1] | EC50 (HIV-1NL4-3; Human immunodeficiency virus 1, TZM-bl, 48 h, TZM-bl cells infected with HIV-1NL4-3 at MOI 1, 48 h, read-out: EC50) [nM] | SI (CC50/EC50) (HIV-1NL4-3; TZM-bl cells) | EC50 (HIV-1NL4-3; Human immunodeficiency virus 1, TZM-bl, 48 h, TZM-bl cells infected with HIV-1NL4-3 at MOI 1, 48 h, F-Luc, mean ± SD) [nM] | EC50 (HIV-1NL4-3; [6]) [nM] | EC50 (HIV-1NL4-3; TZM-bl cells infected with HIV-1NL4-3 at MOI 1, 48 h, F-Luc, mean ± SD, read-out: EC50) [nM] | EC50 [2] [nM] | EC50 [3] [nM] | EC50 [4] [nM] | EC50 [5] [nM] | EC50 (HIV-1NL4-3; Human immunodeficiency virus 1, TZM-bl, 48 h, TZM-bl cells infected with HIV-1NL4-3 at MOI 1, 48 h, F-Luc, mean ± SD, read-out: EC50) [nM] | EC90 (HIV-1NL4-3; Human immunodeficiency virus 1, TZM-bl cells, read-out: approximate EC90) [nM] | EC50 (HIV-1NL4-3; [7]) [nM]
1 | CC(C)[C@]12O[C@H]1[C@@H]1O[C@]13[C@]1(O[C@H]1C[C@H]1C4=C(CC[C@@]13C)C(=O)OC4)[C@@H]2O [triptolide, reference compound] | >100 | 0.38 ± 0.07 | 52.63 | – | – | – | – | – | – | – | – | – | –
2 | Cc1[nH]c2ccc(-c3nnc(SCC(=O)N4CCCC4)o3)cc2c1C [Compound 13, 2-((5-(2,3-Dimethyl-1H-indol-5-yl)-1,3,4-oxadiazol-2-yl)thio)-1-(pyrrolidin-1-yl)ethan-1-one] | >100 | – | 196.33 | 180 ± 50 | 200 ± 20 | 240 ± 30 | 140 ± 10 | 230 ± 20 | 200 | 180 ± 10 | – | – | –
3 | Cc1[nH]c2ccc(-c3nnc(SCC(=O)N4CCCCC4)o3)cc2c1C [Compound 9, 2-((5-(2,3-Dimethyl-1H-indol-5-yl)-1,3,4-oxadiazol-2-yl)thio)-1-(piperidin-1-yl)ethan-1-one] | >100 | – | 371.76 | – | 130 ± 20 | – | 70 | 80 ± 20 | 70 | 60 | 170 ± 20 | ~1500 | –
4 | O=C1Nc2ccc(Cl)cc2[C@@](C#CC2CC2)(C(F)(F)F)O1 [EFV, efavirenz, reference compound] | – | – | – | – | – | – | – | – | 4360 ± 80 | 15500 ± 3390 | – | – | < 1
5 | C[C@@H]1CCO[C@H]2Cn3cc(C(=O)NCc4ccc(F)cc4F)c(=O)c(O)c3C(=O)N12 [DTG, dolutegravir, reference compound] | – | – | – | – | – | – | 10 ± 10 | 10 | – | – | – | – | 1
